Laboratory results from patent US5767085A, “Compounds with growth hormone releasing properties” (Novo Nordisk A/S, priority 1993, dated 1998).
Where a SMILES comes first, the peptide text is derived from it. [ ]: non-standard residue; d: D form. d1Nal = N[C@H](Cc1cccc2ccccc12)C(=O)O; d2Nal = N[C@H](Cc1ccc2ccccc2c1)C(=O)O; Aib = CC(C)(N)C(=O)O

test system: rat pituitary cells; assay: In-vitro GH release assay using rat pituitary cells (rGH measured by SPA); type: cell-based; conditions: GH secretion from cultured male rat anterior pituitary cells, 15 min stimulation
Procedure: An in-vitro assay using rat pituitary cells was established to study the effect of different GH secretagogues. The mixed pituitary cell culture was isolated from the anterior pituitary of male rats and cultured for 3 days. After washing the cells were stimulated for 15 min and the amount of GH secreted measured in the culture supernatant. The isolation of rat pituitary cells was a modification of 0. Sartor et al., Endocrinolog 116, 1985, pp. 952-957. Pituitaries were discharged from 250 g male Sprague-Dawley rats after decapitation. The neurointermediate lobes were removed and the remainder was placed in Grey's medium supplemented with 0.25% glucose, 2× non essential amino acid and 1% BSA (isolation buffer). The glands were cut into small pieces and transferred to a flask containing 3 ml isolation buffer+11.5 mg trypsin and 1000 μg DNase and incubated for 35 min at 37° C., 95% ° 2 and 70 rotations per min. The fragments were washed 3 times by sedimentation in isolation buffer and aspirated into single cells by using a pasteur pipet. After dispersion the cells were filtered though a nylon filter (160 jum) to remove undigested tissue. The cells were washed 3 times with isolation buffer supplemented with trypsin inhibitor (0.75 mg/ml) and resuspended in culture medium (DMEM supplemented with 25 mM HEPES, 4mM Glutamine, 0.75% sodium bicarbonate, 2.5% FCS, 3% horse serum, 10% rat serum, 1 nM T3 and 40 gg/L dexamethasone) to a density of 2×10^5 cells/ml. The cells were seeded into microtiter plates, 200 μl/well and cultured for 3 days at 37° C.and 8% CO2. Following the culture period the cells were washed twice with stimulation buffer (HBSS supplemented with 1% BSA, 0.25% D-glucose and 25 mM HEPES) and preincubated for 1 hour. The buffer was then removed and new stimulation buffer containing the peptide was added and the plates were incubated for 15 min at 37° C.and 5% CO2. The medium was collected and analyzed for rat growth hormone (rGH) content in a scintillation proximity assay (SPA) as follows (SPA, essentially as described in U.S. Pat. No. 4,568,649, Hart and […], Mol.Immunol. 16, 1979, pp. 265-269, or Udenfriend et al., Proc.Natl.Acad.Sci. USA 82, 1985, pp. 8672-8676). The rGH assay was performed in OptiPlates (96-well plates) suitable for direct counting in a […] TopCount (β-scintillation counter). Assay Protocol: 40 μl buffer 10 μl sample (incubated stimulation buffer) […] 50 μl rabbit anti-rGH 50 μl SPA reagent (anti-rabbit antibody) The plates are sealed and placed on a plate shaker for 30 minutes followed by 10 hours of incubation and settling at 10-15° C.and counting. In the SPA, rGH bound to an anti-GH rabbit antibody (primary antibody) is reacted with a second antibody bound to fluomicrospheres (SPA Type II RIA available from Amersham). Any radiolabelled rGH which is bound to the primary antibody will be immobilized on the fluomicrospheres which will then produce light. Measurement in a β-scintillation counter makes it possible to calculate the amount of radiolabelled rGH. The amount of radiolabelled rGH bound to the fluomicrospheres decreases with an increasing content of rGH in the sample.

Q: With `C[C@H](N)C(=O)N[C@@H](Cc1ccccc1)C(=O)N[C@H](Cc1ccc2ccccc2c1)C(=O)N[C@H](Cc1ccccc1)C(=O)N[C@@H](CCCCN)C(N)=O` [Example 10, H--Ala--Phe--D-2Nal-D--Phe--Lys--NH2] (H-AF[d2Nal][dF]K-NH2) as the molecule, how does the EC50 read?
A: Its EC50 is 2 nM.

Q: And the “Emax (% of GHRP-6)” value?
A: Its value is 90 % of GHRP-6.

Q: Which EC50 does the source give for `C[C@H](N)C(=O)N[C@@H](Cc1c[nH]cn1)C(=O)N[C@H](Cc1cccc2ccccc12)C(=O)N[C@H](Cc1ccccc1)C(=O)N[C@@H](CCCCN)C(N)=O` [Example 51, H--Ala--His--D-1Nal-D--Phe--Lys--NH2] (H-AH[d1Nal][dF]K-NH2) here?
A: Its EC50 is 10 nM.

Q: What about the “Emax (% of GHRP-6)” value of the same molecule?
A: The value was 85 % of GHRP-6.

Q: What does the source list for `CC(C)(N)C(=O)N[C@@H](Cc1ccccc1)C(=O)N[C@H](Cc1ccc2ccccc2c1)C(=O)N[C@H](Cc1ccccc1)C(=O)N[C@@H](CCCCN)C(N)=O` [Example 83, H--Aib--Phe--D-2Nal-D--Phe--Lys--NH2] (H-[Aib]F[d2Nal][dF]K-NH2)?
A: EC50: 8 nM; Emax (% of GHRP-6): 75 % of GHRP-6

Q: How did the EC50 turn out when `C[C@H](NC(=O)[C@@H](Cc1ccccc1)NC(=O)[C@@H](Cc1ccc2ccccc2c1)NC(=O)[C@H](Cc1c[nH]cn1)NC(=O)C(C)(C)N)C(N)=O` [Example 88, H--Aib--His--D-2Nal-D--Phe--Ala--NH2] (H-[Aib]H[d2Nal][dF]A-NH2) was run?
A: The EC50 was 11 nM.

Q: And the “Emax (% of GHRP-6)” value?
A: Its value is 80 % of GHRP-6.
